≈ marks a conversion by molar mass, not a printed value. Where two headings read alike, the source gives them in different places.
Experiments:
[1] = system: VSV, vaccinia and herpes simplex-1 (KOS); assay type: cell-based, vaccinia and herpes simplex-1 (KOS) viruses; conditions: for Antiviral activity of enantiomers and racemate: VSV/PRK, vaccinia/PRK, herpes simplex-1 (KOS)/PRK; for Antiviral activity of congeners: at 100 μg/ml (the highest level tested), PRK cells
Stability = assay type: physicochemical
DNA viruses; RNA viruses = conditions: known from literature; cited from earlier work
vaccinia virus = assay type: cell-based; conditions: for Virus yield: (S)-DHPA 30 μg/ml, ara-A 3 μg/ml, or both
adenosine deaminase = adenosine deaminase (Bos taurus, UniProt P56658); experiment: Deamination of ara-A by adenosine deaminase of calf intestinal mucosa (FIG. 3, FIG. 4); assay type: biochemical; conditions: for Decrease in absorbance at 265 nm (extent of deamination): FIG. 3A
Chain of adenosine deaminase (P56658 whole entry): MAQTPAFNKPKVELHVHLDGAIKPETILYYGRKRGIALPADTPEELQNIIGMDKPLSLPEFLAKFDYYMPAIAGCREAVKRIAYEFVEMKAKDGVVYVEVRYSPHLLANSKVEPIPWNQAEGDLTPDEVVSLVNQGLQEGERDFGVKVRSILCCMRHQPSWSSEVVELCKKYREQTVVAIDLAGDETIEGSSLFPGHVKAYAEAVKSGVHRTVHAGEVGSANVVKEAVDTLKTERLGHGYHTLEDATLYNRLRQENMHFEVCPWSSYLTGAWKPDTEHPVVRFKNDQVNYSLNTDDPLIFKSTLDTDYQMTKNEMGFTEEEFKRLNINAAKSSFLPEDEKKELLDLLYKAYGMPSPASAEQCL
Method: FIG. 3 is a graphical representation showing the inhibitory effect of (S)-DHPA on deamination of ara-A by adenosine deaminase of calf intestinal mucosa. Deamination of ara-A was measured according to the method of Kalckar (compare J. Biol. Chem., 167, 461, […]), modified by Trams and Lauter (compare Biochem. J., 152, 681, 1975). The extent of deamination is equivalent to the decrease of absorbance at λ (wavelength)=265 nm. The decrease in absorbance at 265 nm was 0.11 if 50 nmol of ara-A were used, and was 0.16 if 100 nmol of ara-A were used (FIG. 3A).

Measles = experiment: microbe, parasite or virus in culture; assay type: cell-based; conditions: Measles morbillivirus, Vero; read-out: ID50 (the source's name)
Polio-1 = experiment: microbe, parasite or virus in culture; assay type: cell-based, polio virus type 1; conditions: read-out: ID50
Sindbis = experiment: microbe, parasite or virus in culture; assay type: cell-based; conditions: BHK, read-out: ID50 (the source's name)
Vaccinia = experiment: microbe, parasite or virus in culture; assay type: cell-based; conditions: Orthopoxvirus vaccinia, read-out: ID50
[2] = system: vesicular stomatitis virus; experiment: microbe, parasite or virus in culture; assay type: cell-based; conditions: HSF, read-out: Decrease of virus titer compared with control
Coxsackie B-4 = assay type: cell-based, Coxsackie B-4 virus; conditions: HeLa cells; 100 CCID50; read-out: ID50 (the source's name)
Method: The antiviral activity of (S)-DHPA was explored in a variety of cell cultures and with a variety of DNA and RNA viruses such as listed in Table 1. The cells of each cell culture were inoculated with a certain virus in a dose of about 100 CCID50, that is about 100 times the dose needed to infect 50% of the cells. One hour after inoculation, (S)-DHPA was added in varying doses from zero to 40 μg/ml and sometimes to more than 200 μg/ml. For each virus-cell system, the ID50 of (S)-DHPA, that is the dose of (S)-DHPA needed to suppress the cytopathic effect of the virus by 50%, was determined. This cytopathic effect (CPE) was measured in the untreated virus-infected cell cultures [(S)-DHPA dose 0] and recorded as soon as it reached completion (according to the method described by L. J. Rosenthal and I. L. Shechmaister, in "Tissue Culture", page 510, Academic Press, New York, 1973).

Acute toxicity in mice = assay type: in vivo
[3] = system: vesicular stomatitis virus; assay type: in vivo, NMRI mice; conditions: for Final number of surviving mice: control 37.5%
Vesicular stomatitis = experiment: microbe, parasite or virus in culture; assay type: cell-based; conditions: read-out: ID50
[4] = cited from earlier work
[5] = 1 day after infection, control 3.6
[6] = 2 days after infection, control 5.0
[7] = 3 days after infection, control 5.3
[8] = repeated doses of 0.4 mg/mouse (about 27 mg/kg)

Nc1ncnc2c1ncn2CC(O)CO (racemic) [(RS)-DHPA, (RS)-9-(2,3-dihydroxypropyl)adenine]
Antiviral activity of enantiomers and racemate [1]: almost as effective as the (S)-enantiomer | Antiviral activity of enantiomers and racemate ([1]; listed as RS-form): almost as effective as the S-form | Stability in pure form (Stability): practically unlimited | Stability (thermic sterilization of neutral, weakly acid or weakly alkaline solutions possible) (Stability): remarkable stability

Nc1ncnc2c1ncn2CCC(O)CO (racemic) [RS-9-(3,4-dihydroxybutyl)-adenine]
Antiviral activity of congeners [1]: did not demonstrate an antiviral activity

Nc1ncnc2c1ncn2CC(N)C(=O)O (racemic) [9-(β-DL-alanyl)-adenine]
Antiviral activity of congeners [1]: did not demonstrate an antiviral activity

Nc1ncnc2c1ncn2CC[C@H](O)CO [S-9-(3,4-dihydroxybutyl)adenine]
Antiviral activity of congeners [1]: did not demonstrate an antiviral activity

Nc1ncnc2c1ncn2[C@@H]1O[C@H](CO)[C@@H](O)[C@@H]1O [ara-A, 9-(beta-D-arabinofuranosyl)-adenine, reference compound]
Antiviral activity (DNA viruses; RNA viruses): marked antiviral activity but only for some DNA viruses | Virus yield (vaccinia virus; [5]): 2.1 log10 PFU/ml | Virus yield (vaccinia virus; [6]): 4.0 log10 PFU/ml | Virus yield (vaccinia virus; [7]): 5.0 log10 PFU/ml | Decrease in absorbance at 265 nm (extent of deamination) (adenosine deaminase; 50 nmol of ara-A): 0.11 | Decrease in absorbance at 265 nm (extent of deamination) (adenosine deaminase; 100 nmol of ara-A): 0.16

Nc1ncnc2c1ncn2CCO [9-(2-hydroxyethyl)adenine]
Antiviral activity of congeners [1]: did not demonstrate an antiviral activity

Cc1cn(C[C@H](O)CO)c(=O)[nH]c1=O [S-1-(2,3-dihydroxypropyl)thymine]
Antiviral activity of congeners [1]: did not demonstrate an antiviral activity

Nc1ncnc2c1ncn2CCCO [9-(3-hydroxypropyl)adenine]
Antiviral activity of congeners [1]: did not demonstrate an antiviral activity

O=c1ccn(C[C@H](O)CO)c(=O)[nH]1 [S-1-(2,3-dihydroxypropyl)uracil]
Antiviral activity of congeners [1]: did not demonstrate an antiviral activity

Nc1ncnc2c1ncn2CCC(O)CCO (racemic) [RS-9-(3,5-dihydroxypentyl)adenine]
Antiviral activity of congeners [1]: did not demonstrate an antiviral activity

Nc1ncnc2c1ncn2C[C@@H](O)CO [(R)-DHPA]
Antiviral activity of enantiomers and racemate ([1]; listed as R-enantiomeric form): not

O=c1ccn(CCC(O)CCO)c(=O)[nH]1 (racemic) [RS-1-(3,5-dihydroxypentyl)uracil]
Antiviral activity of congeners [1]: did not demonstrate an antiviral activity

Cc1cn(C[C@@H](O)CO)c(=O)[nH]c1=O [R-1-(2,3-dihydroxypropyl)-thymine]
Antiviral activity of congeners [1]: did not demonstrate an antiviral activity

O=c1ccn(CC[C@H](O)CO)c(=O)[nH]1 [S-1-(3,4-dihydroxybutyl)-racil]
Antiviral activity of congeners [1]: did not demonstrate an antiviral activity

NCCn1cnc2c(N)ncnc21 [9-(2-aminoethyl)adenine]
Antiviral activity of congeners [1]: did not demonstrate an antiviral activity

Nc1ncnc2c1ncn2C[C@H](O)CO [(S)-DHPA, (S)-9-(2,3-dihydroxypropyl)adenine]
Antiviral activity of enantiomers and racemate [1]: active | EC50 (Measles): 4 to 40 µg/mL (≈ 19.1 to 191 µM) | EC50 (Polio-1; HSF): > 200 µg/mL | EC50 (Polio-1; HeLa): > 200 µg/mL | Stability in pure form (Stability): practically unlimited | Stability (thermic sterilization of neutral, weakly acid or weakly alkaline solutions possible) (Stability): remarkable stability | EC50 (Sindbis): > 200 µg/mL | EC50 (Vaccinia; Skin fibroblast): 10 to 20 µg/mL (≈ 47.8 to 95.6 µM) | EC50 (Vaccinia; in Oryctolagus cuniculus): 10 to 20 µg/mL (≈ 47.8 to 95.6 µM) | log reduction at 100 µg/mL ([2]; 24 h): ~4 | log reduction at 100 µg/mL ([2]; 48 h): ~4 | EC50 (Coxsackie B-4): > 200 µg/mL | Virus yield (vaccinia virus; [5]): 3.6 log10 PFU/ml | Virus yield (vaccinia virus; [6]): 4.9 log10 PFU/ml | Virus yield (vaccinia virus; [7]): 5.4 log10 PFU/ml | Potentiation of antiviral activity of ara-A (vaccinia virus; PRK cells, vaccinia virus): markedly potentiated the antiviral activity of ara-A | Survival in acute toxicity test (LD50 could not be determined) (Acute toxicity in mice; doses up to 1000 mg/kg/day for 3 to 5 days): all mice survived (without any sign of illness) | Acute toxicity (Acute toxicity in mice; general statement): very low acute toxicity | Final number of surviving mice ([3]; 2 mg/mouse (about 133 mg/kg) i.p. at 1 h and 1, 2, 3, 4 days): 67% | Increase in final number of surviving mice vs control ([3]; 2 mg/mouse i.p., repeated): significant increase | Difference in number of survivors at 9 days vs control ([3]; 2 mg/mouse i.p., repeated, 9 days after infection): significant | Protection ([3]; repeated doses of 0.08 mg/mouse (about 5.4 mg/kg)): did not confer protection | Protection [3, 8]: slight protection | Final number of surviving mice [3, 8]: 55% | Concentration dependence of inhibition of ara-A deamination (adenosine deaminase; absorbance decrease at 265 nm): inhibited proportionally to the concentration of (S)-DHPA | Inhibition of deamination of ara-A (adenosine deaminase; adenosine deaminase extracted from calf intestinal mucosa): strongly inhibited | EC50 (Vesicular stomatitis; HSF): 2 to 7 µg/mL (≈ 9.56 to 33.5 µM) | EC50 (Vesicular stomatitis; HeLa): > 200 µg/mL | EC50 (Vesicular stomatitis; PRK): 7 to 10 µg/mL (≈ 33.5 to 47.8 µM)

CC(O)Cn1cnc2c(N)ncnc21 (racemic) [RS-9-(2-hydroxypropyl)adenine]
Antiviral activity of congeners [1]: did not demonstrate an antiviral activity

O=c1[nH]cnc2c1ncn2C[C@H](O)CO [S-9-(2,3-dihydroxypropyl)hypoxanthine]
Antiviral activity of congeners [1]: did not demonstrate an antiviral activity

Cc1c[nH]c(=O)n(C[C@H](O)CO)c1=O [S-3-(2,3-dihydroxypropyl)thymine]
Antiviral activity of congeners [1]: did not demonstrate an antiviral activity

Nc1ncnc2c1ncn2C(CO)CO [2-(9-adeninyl)propane-1,3-diol]
Antiviral activity of congeners [1]: did not demonstrate an antiviral activity

NC(=O)c1ncn([C@@H]2O[C@H](CO)[C@@H](O)[C@H]2O)n1 [ribavirin, (1-beta-D-ribofuranosyl)-1,2,4-triazole-3-carboxamide]
Safety margin ([4]; known from literature): rather narrow safety margin | Toxicity ([4]; known): high toxicity | Antiviral activity (DNA viruses; RNA viruses): broad-spectrum antiviral activity

Nc1ncnc2c1ncn2C[C@H](O)[C@@H](O)CO (relative stereo) [RS-threo-9-(2,3,4-trihydroxybutyl)adenine]
Antiviral activity of congeners [1]: did not demonstrate an antiviral activity

— patent publication US4230708A (priority 1977, dated 1980)
